System: tumor fly model
Assay: Screening assay: extracts fed to v-myb tumor flies, delay of tumor progression
Assay type: in vivo, Drosophila melanogaster
Conditions: extract concentration fed to the larva/fly that delayed tumor progression by 20% or more
Procedure: In the screening methods of the subject invention, a quantity of a candidate agent is generally orally administered to the fly. Following oral administration, the affect of the candidate agent on the metastatic tumors (or appearance thereof) of the fly is determined, typically by comparison with a control (i.e. a transgenic fly to which the candidate agent has not been administered). The affect of the candidate agent is determined by determining whether one or more of the phenotypic characteristics of the neoplastic condition are exacerbated or ameliorated in the test fly as compared to the control fly, where characteristics that are monitored include tumor growth, tumor metastasis, and the like. The candidate agent is generally orally administered to the fly by mixing the agent into the fly nutrient medium, e.g. water, aqueous solution with additional nutrient agents, etc., and placing the medium in the presence of the fly, (either the larva or adult fly, usually the adult fly) such that the fly feeds on the medium. Generally a plurality of assay mixtures are run in parallel with different agent concentrations to obtain a differential response to the various concentrations of candidate agent. Typically, one of these concentrations serves as a negative control, i.e. no compound. […]

In the case of `CC(C)=CCC/C(C)=C/C=C/C(C)=C/C=C/C(C)=C/C=C/C=C(C)/C=C/C=C(C)/C=C/C=C(\C)CCC=C(C)C` [Lycopene], the “Positive antitumor activity dose range” value was “.01%-100%”.
